Entries after “also recorded” stand apart in the source; their conditions may differ. Like-named read-outs stand apart in the source and are kept apart here.
Assays:
[1] = test system: MDA-MB-231 cells; assay: Cell cycle analysis by flow cytometry; assay type: cell-based, human; conditions: 24 h, five-fold GI50 (2a 6.0 μM, 2d 8.0 μM, 3b 10.5 μM)
[2] = test system: MDA-MB-231 (human breast carcinoma cell line); assay: SRB assay, MDA-MB-231; conditions: MDA-MB-231, 72 h, read-out: GI50 MDA-MB-231
[3] = test system: A549 (lung cancer); assay: SRB assay, A549; conditions: Homo sapiens, A549, 72 h, read-out: GI50 A549
[4] = test system: KB (nasopharyngeal carcinoma); assay: SRB assay, KB; conditions: for GI50: Homo sapiens, 72 h, read-out: GI50 KB
[5] = target: CDK9/cyclin T1 (Homo sapiens, UniProt P50750); assay: CDK9/cyclin T1 kinase assay; assay type: biochemical
CDK9/cyclin T1, sequence (P50750 whole entry): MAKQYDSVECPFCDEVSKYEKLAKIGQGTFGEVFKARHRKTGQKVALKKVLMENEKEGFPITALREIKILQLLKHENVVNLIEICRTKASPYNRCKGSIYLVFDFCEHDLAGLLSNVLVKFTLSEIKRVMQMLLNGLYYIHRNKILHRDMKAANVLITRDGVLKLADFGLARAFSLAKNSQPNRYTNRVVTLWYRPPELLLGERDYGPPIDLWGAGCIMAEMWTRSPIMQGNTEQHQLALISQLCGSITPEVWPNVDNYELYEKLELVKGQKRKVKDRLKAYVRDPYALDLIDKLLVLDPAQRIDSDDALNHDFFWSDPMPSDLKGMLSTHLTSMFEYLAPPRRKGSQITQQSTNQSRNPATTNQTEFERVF
CDK9/cyclin T1, sequence (O60563 whole entry partner): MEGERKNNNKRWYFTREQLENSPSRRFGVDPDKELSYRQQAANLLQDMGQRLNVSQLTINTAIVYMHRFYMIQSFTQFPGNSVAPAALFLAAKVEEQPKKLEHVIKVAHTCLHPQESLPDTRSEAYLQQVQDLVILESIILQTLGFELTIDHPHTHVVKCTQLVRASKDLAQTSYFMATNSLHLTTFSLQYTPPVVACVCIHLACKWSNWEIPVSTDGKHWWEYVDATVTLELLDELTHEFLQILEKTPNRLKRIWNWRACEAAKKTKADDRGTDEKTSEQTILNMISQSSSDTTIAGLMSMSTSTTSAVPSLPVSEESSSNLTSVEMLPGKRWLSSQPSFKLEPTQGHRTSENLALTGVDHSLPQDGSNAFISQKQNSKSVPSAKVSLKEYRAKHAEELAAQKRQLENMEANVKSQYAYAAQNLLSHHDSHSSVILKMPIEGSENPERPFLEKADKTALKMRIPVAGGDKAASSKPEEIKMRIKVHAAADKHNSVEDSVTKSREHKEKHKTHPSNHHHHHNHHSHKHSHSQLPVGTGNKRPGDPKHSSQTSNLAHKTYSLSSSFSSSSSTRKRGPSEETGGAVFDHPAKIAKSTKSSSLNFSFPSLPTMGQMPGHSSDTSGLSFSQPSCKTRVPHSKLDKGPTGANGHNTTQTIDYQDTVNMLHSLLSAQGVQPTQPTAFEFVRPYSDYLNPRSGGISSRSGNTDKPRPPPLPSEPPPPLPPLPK

[6] = test system: MCF-7 (Michigan Cancer Foundation-7); assay: SRB assay, MCF-7; conditions: Homo sapiens, MCF7, 72 h, read-out: GI50 MCF-7
[7] = target: CDK2/cyclin A (Homo sapiens, UniProt P24941); assay: CDK2/cyclin A kinase assay; assay type: biochemical
[8] = test system: KB-vin (vincristine-resistant KB subline); conditions: SRB assay; cited from earlier work
[9] = test system: A549 (lung cancer); conditions: read-out: GI50 A549; SRB assay; cited from earlier work
[10] = test system: KB (nasopharyngeal carcinoma); conditions: SRB assay; cited from earlier work
[11] = test system: KB-vin (vincristine-resistant KB subline); assay: SRB assay, KB-vin; conditions: 3 days, mean ± SD of three

Row | SMILES | Effect on cell cycle progression [1] | GI50 [2] [nM] | GI50 [3] [nM] | GI50 [4] [nM] | IC50 [5] [nM] | GI50 [6] [nM] | IC50 [7] [nM] | subtype selectivity for CDK9 over CDK2 ([5]; ratio of IC50 CDK2/cyclin A to CDK9/cyclin T1) [fold] | GI50 KB-vin [8] [nM] | GI50 [9] [nM] | GI50 KB [10] [nM] | GI50 KB ([4]; SRB assay, 3 days, mean ± SD of three) [nM] | GI50 KB-vin [11] [nM]
1 | COc1ccc(Nc2nc(Nc3cccc(NC(=O)CN(C)C)c3)ncc2F)cc1 [2a, 2-(Dimethylamino)-N-(3-((5-fluoro-4-((4-methoxyphenyl)amino)pyrimidin-2-yl)amino)phenyl)acetamide] | induced cell cycle arrest in G2/M phase; also recorded: induced cell cycle arrest at G2/M | 1200 ± 60 | 720 ± 10 | 570 ± 10 | 300 ± 10 | 670 ± 60 | 320 ± 280 | – | – | – | – | – | –
2 | CC(=O)c1ccc(Nc2nc(Nc3cccc(NC(=O)CN(C)C)c3)ncc2F)cc1 [2b, N-(3-((4-((4-Acetylphenyl)amino)-5-fluoropyrimidin-2-yl)amino)phenyl)-2-(dimethylamino)acetamide] | – | 5800 ± 80 | 2330 ± 30 | 2200 ± 370 | 390 ± 80 | 3800 ± 240 | 780 ± 40 | – | – | – | – | – | –
3 | CN(C)CC(=O)Nc1cccc(Nc2ncc(F)c(Nc3ccc(Cl)cc3)n2)c1 [2c, N-(3-((4-((4-Chlorophenyl)amino)-5-fluoropyrimidin-2-yl)amino)phenyl)-2-(dimethylamino)acetamide] | – | 6770 ± 380 | 2120 ± 260 | 2030 ± 320 | 1100 ± 20 | 3940 ± 310 | 910 ± 110 | – | – | – | – | – | –
4 | CN(C)CC(=O)Nc1cccc(Nc2ncc(F)c(Nc3ccc(N(C)C)cc3)n2)c1 [2d, 2-(Dimethylamino)-N-(3-((4-((4-(dimethylamino)phenyl)amino)-5-fluoropyrimidin-2-yl)amino)phenyl)acetamide] | induced cell cycle arrest in G2/M phase; also recorded: induced cell cycle arrest at G2/M | 1640 ± 150 | 1890 ± 190 | 3080 ± 160 | 320 ± 50 | 2830 ± 30 | 940 ± 430 | – | – | – | – | – | –
5 | CN(C)CC(=O)Nc1cccc(Nc2ncc(F)c(Nc3c(F)cccc3F)n2)c1 [2e, N-(3-((4-((2,6-Difluorophenyl)amino)-5-fluoropyrimidin-2-yl)amino)phenyl)-2-(dimethylamino)acetamide] | – | 3980 ± 160 | 1310 ± 70 | 4780 ± 380 | – | 4490 ± 30 | – | – | – | – | – | – | –
6 | CN(C)CC(=O)Nc1cccc(Nc2ncc(F)c(Nc3c(Cl)cccc3Cl)n2)c1 [2f, N-(3-((4-((2,6-Dichlorophenyl)amino)-5-fluoropyrimidin-2-yl)amino)phenyl)-2-(dimethylamino)acetamide] | – | 13000 ± 380 | 3470 ± 440 | 7040 ± 80 | 570 ± 120 | 6020 ± 510 | 1600 ± 110 | – | – | – | – | – | –
7 | CN(C)CC(=O)Nc1cccc(Nc2ncc(F)c(Nc3cc(F)cc(F)c3)n2)c1 [2g, N-(3-((4-((3,5-Difluorophenyl)amino)-5-fluoropyrimidin-2-yl)amino)phenyl)-2-(dimethylamino)acetamide] | – | 4640 ± 60 | 710 ± 60 | 560 ± 80 | 490 ± 270 | 670 ± 30 | 570 ± 50 | – | – | – | – | – | –
8 | CN(C)CC(=O)Nc1cccc(Nc2ncc(F)c(NN3CCN(C)CC3)n2)c1 [2h, 2-(Dimethylamino)-N-(3-((5-fluoro-4-((4-methylpiperazin-1-yl)amino)pyrimidin-2-yl)amino)phenyl)acetamide] | – | > 10000 | > 10000 | > 10000 | 2200 ± 320 | > 10000 | 5600 ± 530 | – | – | – | – | – | –
9 | CN(C)CC(=O)Nc1cccc(Nc2ncc([N+](=O)[O-])c(Nc3c(F)cccc3F)n2)c1 [2i, N-(3-((4-((2,6-Difluorophenyl)amino)-5-nitropyrimidin-2-yl)amino)phenyl)-2-(dimethylamino)acetamide] | – | 5940 ± 330 | 4900 ± 450 | 5730 ± 350 | 480 ± 80 | 10230 ± 30 | 780 ± 120 | – | – | – | – | – | –
10 | CC(C)CC(=O)Nc1cccc(Nc2ncc(F)c(Nc3c(F)cccc3F)n2)c1 [3a, N-(3-((4-((2,6-Difluorophenyl)amino)-5-fluoropyrimidin-2-yl)amino)phenyl)-3-methylbutanamide] | – | > 10000 | 720 ± 40 | 590 ± 50 | 480 ± 220 | 5970 ± 190 | 1100 ± 150 | – | – | – | – | – | –
11 | CC(C)(C)NCC(=O)Nc1cccc(Nc2ncc(F)c(Nc3c(F)cccc3F)n2)c1 [3b, 2-(tert-Butylamino)-N-(3-((4-((2,6-difluorophenyl)amino)-5-fluoropyrimidin-2-yl)amino)phenyl)acetamide] | induced cell cycle arrest in G2/M phase; also recorded: induced cell cycle arrest at G2/M | 2070 ± 120 | 1310 ± 180 | 3270 ± 130 | 80 ± 1 | 2730 ± 480 | 380 ± 60 | – | – | – | – | – | –
12 | CN(C)CCC(=O)Nc1cccc(Nc2ncc(F)c(Nc3c(F)cccc3F)n2)c1 [3c, N-(3-((4-((2,6-Difluorophenyl)amino)-5-fluoropyrimidin-2-yl)amino)phenyl)-3-(dimethylamino)propanamide] | – | 3240 ± 50 | 1200 ± 50 | 2310 ± 110 | 65 ± 23 | 2650 ± 400 | 300 ± 70 | – | – | – | – | – | –
13 | CN1CCC(C(=O)Nc2cccc(Nc3ncc(F)c(Nc4c(F)cccc4F)n3)c2)CC1 [3d, N-(3-((4-((2,6-Difluorophenyl)amino)-5-fluoropyrimidin-2-yl)amino)phenyl)-1-methylpiperidine-4-carboxamide] | – | 3300 ± 230 | 1090 ± 30 | 2600 ± 450 | 660 ± 20 | 6160 ± 140 | 130 ± 20 | – | – | – | – | – | –
14 | CN(C)CCNC(=O)c1cccc(Nc2ncc(F)c(Nc3c(F)cccc3F)n2)c1 [3e, 3-((4-((2,6-Difluorophenyl)amino)-5-fluoropyrimidin-2-yl)amino)-N-(2-(dimethylamino)ethyl)benzamide] | – | 5420 ± 350 | 720 ± 10 | 3820 ± 110 | 230 ± 10 | 6730 ± 230 | 750 ± 140 | – | – | – | – | – | –
15 | COc1ccc(Nc2ncc(F)c(Nc3c(F)cccc3F)n2)cc1NC(=O)CN(C)C [3i, N-(5-((4-((2,6-Difluorophenyl)amino)-5-fluoropyrimidin-2-yl)amino)-2-methoxyphenyl)-2-(dimethylamino)acetamide] | – | 4050 ± 140 | 700 ± 2 | 2870 ± 240 | – | 1880 ± 120 | – | – | – | – | – | – | –
16 | Cc1ccc(Nc2ncc(F)c(Nc3c(F)cccc3F)n2)cc1NC(=O)CN(C)C [3j, N-(5-((4-((2,6-Difluorophenyl)amino)-5-fluoropyrimidin-2-yl)amino)-2-methylphenyl)-2-(dimethylamino)acetamide] | – | 5310 ± 190 | 1150 ± 80 | 600 ± 40 | – | 2370 ± 620 | – | – | – | – | – | – | –
17 | CN(C)CC(=O)Nc1ccc(Nc2ncc(F)c(Nc3c(F)cccc3F)n2)cc1 [3k, N-(4-((4-((2,6-Difluorophenyl)amino)-5-fluoropyrimidin-2-yl)amino)phenyl)-2-(dimethylamino)acetamide] | – | 6010 ± 80 | 3040 ± 180 | 3800 ± 340 | – | 4480 ± 390 | – | – | – | – | – | – | –
18 | CN1CCN(c2cccc(Nc3ncc(F)c(Nc4c(F)cccc4F)n3)c2)CC1 [3m, N ^4-(2,6-Difluorophenyl)-5-fluoro-N^2-(3-(4-methylpiperazin-1-yl)phenyl) pyrimidine-2,4-diamine] | – | 2840 ± 670 | 1250 ± 80 | 400 ± 90 | 290 ± 2 | 7760 ± 520 | 470 ± 40 | – | – | – | – | – | –
19 | CN1CCCN(c2cccc(Nc3ncc(F)c(Nc4c(F)cccc4F)n3)c2)CC1 [3n, N ^4-(2,6-Difluorophenyl)-5-fluoro-N^2-(3-(4-methyl-1,4-diazepan-1-yl)phenyl) pyrimidine-2,4-diamine] | – | 4770 ± 270 | 710 ± 10 | 4440 ± 420 | 1600 ± 100 | 7160 ± 540 | 950 ± 270 | – | – | – | – | – | –
20 | Cc1ccc(Nc2ncc(F)c(Nc3c(F)cccc3F)n2)cc1N1CCOCC1 [3o, N ^4-(2,6-difluorophenyl)-5-fluoro-N^2-(4-methyl-3-morpholinophenyl)pyrimidine-2,4-diamine] | – | 7000 ± 60 | 850 ± 10 | 980 ± 50 | 740 ± 40 | 3750 ± 280 | 5600 ± 30 | 7.5 | – | – | – | – | –
21 | CN1CC[C@H](c2c(O)cc(O)c3c(=O)cc(-c4ccccc4Cl)oc23)[C@H](O)C1 [FVP, Flavopiridol] | – | – | – | – | – | – | – | – | 180 ± 10 | 140 ± 10 | 160 ± 10 | – | –
22 | CC(=O)O[C@H]1C(=O)[C@@]2(C)[C@H]([C@H](OC(=O)c3ccccc3)[C@]3(O)C[C@H](OC(=O)[C@H](O)[C@@H](NC(=O)c4ccccc4)c4ccccc4)C(C)=C1C3(C)C)[C@]1(OC(C)=O)CO[C@@H]1C[C@@H]2O [Paclitaxel, reference compound] | – | 7.76 ± 0.39 | 5.98 ± 0.4 | – | – | 8.78 ± 0.79 | – | – | – | – | – | 4.94 ± 0.21 | 1518.36 ± 141.54

From article PMC5890689 (RSC Advances, 2018)
